# Read-outs that look alike come from different tables or passages of the source.
# Columns and labels:
# Test in all cases: biochemical
# Set-up in all cases: Eurofins KinaseProfiler full panel at Km ATP, residual kinase activity (%) relative to DMSO
# CDK1/cyclinB(h) = CDK1/cyclinB(h) (Homo sapiens, UniProt P06493)
# Outline: (§1)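 Two 10 µM single-concentration screens were run: a competition-binding screen, in which DNA-tagged kinase bound to immobilized ligands was quantified by qPCR, and a radiometric activity panel at Km ATP. Each is expressed as residual kinase activity (%).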
# cSRC(h) = molecular target: T1, cSRC(h) (Homo sapiens, UniProt P12931)
# T1 construct: gene SRC
# T1 sequence (P12931 whole entry): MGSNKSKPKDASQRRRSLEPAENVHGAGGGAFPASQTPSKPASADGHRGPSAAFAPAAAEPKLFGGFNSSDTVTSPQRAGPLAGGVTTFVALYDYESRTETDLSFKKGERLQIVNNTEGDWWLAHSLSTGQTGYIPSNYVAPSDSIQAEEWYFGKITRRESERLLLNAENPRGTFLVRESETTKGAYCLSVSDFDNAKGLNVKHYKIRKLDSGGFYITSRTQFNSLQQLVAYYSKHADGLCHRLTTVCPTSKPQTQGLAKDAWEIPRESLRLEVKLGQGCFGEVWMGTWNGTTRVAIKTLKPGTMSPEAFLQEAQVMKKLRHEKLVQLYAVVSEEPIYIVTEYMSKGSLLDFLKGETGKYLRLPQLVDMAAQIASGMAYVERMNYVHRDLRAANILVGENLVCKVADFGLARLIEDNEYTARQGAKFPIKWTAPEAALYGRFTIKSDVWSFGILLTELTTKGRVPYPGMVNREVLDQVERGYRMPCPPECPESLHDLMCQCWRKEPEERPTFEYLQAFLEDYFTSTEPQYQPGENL
# Outline: as §1
# Fer(h) = Fer(h) (Homo sapiens, UniProt P16591)
# Chain of Fer(h) (P16591 whole entry): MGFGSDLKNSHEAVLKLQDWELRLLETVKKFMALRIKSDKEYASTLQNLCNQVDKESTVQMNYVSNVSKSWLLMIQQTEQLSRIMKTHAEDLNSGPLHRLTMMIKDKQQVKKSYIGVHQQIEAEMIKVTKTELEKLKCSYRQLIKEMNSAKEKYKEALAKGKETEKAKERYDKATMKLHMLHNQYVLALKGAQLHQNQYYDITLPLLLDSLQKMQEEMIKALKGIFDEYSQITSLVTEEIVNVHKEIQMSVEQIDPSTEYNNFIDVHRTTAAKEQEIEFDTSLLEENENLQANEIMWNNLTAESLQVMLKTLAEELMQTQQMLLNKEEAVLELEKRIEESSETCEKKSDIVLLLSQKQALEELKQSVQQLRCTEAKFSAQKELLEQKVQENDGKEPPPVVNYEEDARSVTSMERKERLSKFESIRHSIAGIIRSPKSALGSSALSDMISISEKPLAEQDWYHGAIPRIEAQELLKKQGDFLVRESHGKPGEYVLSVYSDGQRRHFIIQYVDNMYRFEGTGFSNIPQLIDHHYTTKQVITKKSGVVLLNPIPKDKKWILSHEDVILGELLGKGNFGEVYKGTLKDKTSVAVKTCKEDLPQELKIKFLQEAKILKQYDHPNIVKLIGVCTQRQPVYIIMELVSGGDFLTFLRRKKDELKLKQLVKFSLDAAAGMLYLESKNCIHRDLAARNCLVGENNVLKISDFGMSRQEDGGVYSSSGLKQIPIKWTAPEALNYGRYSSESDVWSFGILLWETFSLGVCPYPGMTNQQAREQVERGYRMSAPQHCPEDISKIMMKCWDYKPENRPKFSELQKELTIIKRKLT
# Outline: as §1
# BIKe(h) = molecular target: T2, BIKe(h) (Homo sapiens, UniProt Q9NSY1)
# T2 construct: gene BMP2K
# Outline: as §1
# PKD3(h) = molecular target: T3, PKD3(h) (Homo sapiens, UniProt O94806)
# T3 construct: gene PRKD3
# T3 sequence (O94806 1-890): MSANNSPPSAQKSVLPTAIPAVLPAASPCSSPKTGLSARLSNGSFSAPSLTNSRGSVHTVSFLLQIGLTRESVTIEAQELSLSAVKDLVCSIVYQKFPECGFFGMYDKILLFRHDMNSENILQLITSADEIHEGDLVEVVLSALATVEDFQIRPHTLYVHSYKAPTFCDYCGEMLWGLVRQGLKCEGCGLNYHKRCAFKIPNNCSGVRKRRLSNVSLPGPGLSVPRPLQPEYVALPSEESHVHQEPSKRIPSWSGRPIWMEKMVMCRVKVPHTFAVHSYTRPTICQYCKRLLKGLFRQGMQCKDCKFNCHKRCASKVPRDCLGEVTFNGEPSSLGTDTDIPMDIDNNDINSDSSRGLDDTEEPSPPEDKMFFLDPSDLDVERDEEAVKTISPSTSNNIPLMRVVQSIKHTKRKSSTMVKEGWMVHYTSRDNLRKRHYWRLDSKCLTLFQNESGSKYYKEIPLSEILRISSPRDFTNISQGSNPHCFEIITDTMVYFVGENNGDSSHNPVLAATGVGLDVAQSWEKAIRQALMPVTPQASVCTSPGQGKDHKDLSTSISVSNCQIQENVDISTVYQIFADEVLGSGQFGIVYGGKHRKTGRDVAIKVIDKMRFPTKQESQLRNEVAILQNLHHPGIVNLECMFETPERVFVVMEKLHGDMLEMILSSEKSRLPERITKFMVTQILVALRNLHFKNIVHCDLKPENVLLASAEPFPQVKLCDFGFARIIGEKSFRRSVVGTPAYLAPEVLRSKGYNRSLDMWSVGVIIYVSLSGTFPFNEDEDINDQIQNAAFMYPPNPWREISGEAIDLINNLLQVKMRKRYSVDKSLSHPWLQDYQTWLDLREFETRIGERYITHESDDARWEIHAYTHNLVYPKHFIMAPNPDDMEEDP
# Outline: as §1
# WNK1(h) = WNK1(h) (Homo sapiens, UniProt Q9H4A3)
# Outline: as §1
# PKCβII(h) = molecular target: T4, PKCβII(h) (Homo sapiens, UniProt P05771)
# T4 construct: gene PRKCB; isoform beta II
# T4 sequence (P05771 whole entry, canonical isoform): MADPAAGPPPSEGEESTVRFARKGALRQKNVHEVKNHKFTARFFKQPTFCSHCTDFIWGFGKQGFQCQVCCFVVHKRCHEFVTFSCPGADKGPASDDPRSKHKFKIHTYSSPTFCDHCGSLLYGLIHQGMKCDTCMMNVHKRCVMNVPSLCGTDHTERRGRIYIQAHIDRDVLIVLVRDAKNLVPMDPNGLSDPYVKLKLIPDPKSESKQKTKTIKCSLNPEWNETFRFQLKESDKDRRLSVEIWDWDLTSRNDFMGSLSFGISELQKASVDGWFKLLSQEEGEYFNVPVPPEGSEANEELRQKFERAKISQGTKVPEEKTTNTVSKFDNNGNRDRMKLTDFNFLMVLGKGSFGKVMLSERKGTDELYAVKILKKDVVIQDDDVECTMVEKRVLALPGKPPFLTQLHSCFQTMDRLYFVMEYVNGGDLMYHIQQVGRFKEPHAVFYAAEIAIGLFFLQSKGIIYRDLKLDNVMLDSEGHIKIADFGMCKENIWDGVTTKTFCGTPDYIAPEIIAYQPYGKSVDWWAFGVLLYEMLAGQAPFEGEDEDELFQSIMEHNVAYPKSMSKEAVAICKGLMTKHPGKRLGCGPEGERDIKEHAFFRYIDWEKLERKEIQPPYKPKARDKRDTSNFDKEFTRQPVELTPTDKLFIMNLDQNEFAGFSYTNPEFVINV
# Outline: as §1
# mTOR(h) = mTOR(h) (Homo sapiens, UniProt P42345)
# Outline: as §1
# MKK6(h) = molecular target: T5, MKK6(h) (Homo sapiens, UniProt P52564)
# T5 construct: gene MAP2K6
# T5 sequence (P52564 1-334): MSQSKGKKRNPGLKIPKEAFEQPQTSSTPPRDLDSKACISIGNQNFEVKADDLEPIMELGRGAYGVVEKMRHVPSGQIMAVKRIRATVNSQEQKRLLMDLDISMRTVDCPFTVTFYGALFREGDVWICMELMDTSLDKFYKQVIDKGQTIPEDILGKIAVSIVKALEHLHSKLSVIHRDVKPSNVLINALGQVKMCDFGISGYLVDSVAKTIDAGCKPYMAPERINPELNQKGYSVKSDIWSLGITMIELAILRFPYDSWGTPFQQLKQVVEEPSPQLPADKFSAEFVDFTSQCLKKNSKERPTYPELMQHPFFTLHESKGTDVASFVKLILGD
# Outline: as §1
# VRK2(h) = VRK2(h) (Homo sapiens, UniProt Q86Y07)
# Chain of VRK2(h) (Q86Y07 whole entry): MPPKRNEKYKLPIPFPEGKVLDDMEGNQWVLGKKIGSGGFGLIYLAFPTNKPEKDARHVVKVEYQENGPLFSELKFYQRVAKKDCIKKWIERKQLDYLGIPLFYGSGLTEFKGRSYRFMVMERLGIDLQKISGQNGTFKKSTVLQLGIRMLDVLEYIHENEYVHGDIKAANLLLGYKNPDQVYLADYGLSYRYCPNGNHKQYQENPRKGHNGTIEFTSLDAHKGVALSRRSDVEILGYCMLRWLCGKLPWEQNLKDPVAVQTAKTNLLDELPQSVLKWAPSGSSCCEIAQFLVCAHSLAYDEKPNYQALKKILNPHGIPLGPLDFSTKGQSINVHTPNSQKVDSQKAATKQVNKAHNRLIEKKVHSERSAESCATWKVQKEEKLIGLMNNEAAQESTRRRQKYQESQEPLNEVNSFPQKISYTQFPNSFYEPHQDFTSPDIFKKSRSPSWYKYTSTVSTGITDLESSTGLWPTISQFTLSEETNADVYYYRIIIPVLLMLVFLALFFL
# Outline: as §1
# Src(1-530)(h) = molecular target: T6, Src(1-530)(h) (Homo sapiens, UniProt P12931)
# T6 construct: residues 1-530
# T6 sequence (P12931 whole entry, the tested form may be a part): as the sequence (P12931 whole entry) above
# Outline: as §1
# AMPKα1(h) = molecular target: T7, AMPKα1(h) (Homo sapiens, UniProt Q13131)
# T7 construct: gene PRKAA1
# T7 sequence (Q13131 whole entry): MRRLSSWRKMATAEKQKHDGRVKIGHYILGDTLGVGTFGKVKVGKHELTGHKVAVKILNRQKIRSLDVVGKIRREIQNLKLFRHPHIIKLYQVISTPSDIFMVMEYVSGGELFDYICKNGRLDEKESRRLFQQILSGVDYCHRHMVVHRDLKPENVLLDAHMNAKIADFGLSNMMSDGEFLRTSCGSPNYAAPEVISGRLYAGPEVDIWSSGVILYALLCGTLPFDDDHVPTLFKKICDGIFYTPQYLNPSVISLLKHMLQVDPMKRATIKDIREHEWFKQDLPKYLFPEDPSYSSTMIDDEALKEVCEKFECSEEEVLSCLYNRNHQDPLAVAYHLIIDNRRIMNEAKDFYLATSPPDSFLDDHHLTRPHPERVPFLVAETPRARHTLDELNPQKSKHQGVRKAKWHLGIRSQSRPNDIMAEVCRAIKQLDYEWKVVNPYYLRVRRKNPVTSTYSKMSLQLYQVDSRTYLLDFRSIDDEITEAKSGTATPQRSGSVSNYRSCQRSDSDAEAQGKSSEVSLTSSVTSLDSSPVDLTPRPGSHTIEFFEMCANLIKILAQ
# T7 sequence (P54619 whole entry partner): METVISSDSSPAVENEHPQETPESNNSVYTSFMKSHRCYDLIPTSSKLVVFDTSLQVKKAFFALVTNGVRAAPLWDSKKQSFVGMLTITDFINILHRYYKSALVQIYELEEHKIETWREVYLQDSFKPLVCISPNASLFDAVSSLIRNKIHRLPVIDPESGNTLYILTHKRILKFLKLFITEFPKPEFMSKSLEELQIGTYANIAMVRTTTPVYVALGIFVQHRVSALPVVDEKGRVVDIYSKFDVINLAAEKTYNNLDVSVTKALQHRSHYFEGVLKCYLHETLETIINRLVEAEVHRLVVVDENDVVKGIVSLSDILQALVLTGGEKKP
# T7 sequence (Q9Y478 whole entry partner): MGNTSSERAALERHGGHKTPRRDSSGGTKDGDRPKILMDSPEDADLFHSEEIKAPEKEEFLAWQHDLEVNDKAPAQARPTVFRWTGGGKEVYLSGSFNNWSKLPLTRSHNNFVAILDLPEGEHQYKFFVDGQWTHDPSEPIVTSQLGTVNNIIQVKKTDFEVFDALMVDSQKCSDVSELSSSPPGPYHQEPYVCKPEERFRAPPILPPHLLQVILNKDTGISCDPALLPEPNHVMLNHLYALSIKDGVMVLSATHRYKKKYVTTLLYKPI
# Outline: as §1
# [1] = read-out: Residual activity (%) Spautin-1 5aa
# [2] = read-out: Residual activity (%) 5as
# [3] = read-out: Residual activity (%) 5at
# [4] = read-out: Residual activity (%) 5ay
# Chain of CDK1/cyclinB(h) (P06493 whole entry): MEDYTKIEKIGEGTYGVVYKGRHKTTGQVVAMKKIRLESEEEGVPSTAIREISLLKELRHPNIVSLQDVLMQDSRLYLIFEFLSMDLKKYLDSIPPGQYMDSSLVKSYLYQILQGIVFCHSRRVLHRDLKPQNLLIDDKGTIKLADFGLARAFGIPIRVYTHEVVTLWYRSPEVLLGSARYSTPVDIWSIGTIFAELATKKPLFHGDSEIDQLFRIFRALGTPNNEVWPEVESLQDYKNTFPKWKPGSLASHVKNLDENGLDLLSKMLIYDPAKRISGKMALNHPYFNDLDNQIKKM
# Chain of CDK1/cyclinB(h) (P14635 whole entry partner): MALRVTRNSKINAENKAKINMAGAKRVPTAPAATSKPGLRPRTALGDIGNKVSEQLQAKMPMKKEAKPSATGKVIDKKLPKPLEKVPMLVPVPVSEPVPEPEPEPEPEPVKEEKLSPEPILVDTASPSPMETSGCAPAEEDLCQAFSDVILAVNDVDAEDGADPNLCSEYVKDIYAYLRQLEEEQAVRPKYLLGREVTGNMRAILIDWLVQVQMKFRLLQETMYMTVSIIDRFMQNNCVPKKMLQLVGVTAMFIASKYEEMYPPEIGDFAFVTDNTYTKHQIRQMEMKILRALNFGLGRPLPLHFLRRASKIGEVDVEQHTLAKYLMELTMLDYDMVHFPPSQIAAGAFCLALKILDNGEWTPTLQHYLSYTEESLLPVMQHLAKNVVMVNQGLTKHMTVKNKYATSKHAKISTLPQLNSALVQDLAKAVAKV
smiles,measurement,setting,value
"Fc1ccc(CNc2ncnc3ccc(F)cc23)cc1 [5aa, 6-Fluoro-N-(4-fluorobenzyl)-4-Quinazolinamine]",remaining activity at 10 µM,CDK1/cyclinB(h); [1],87%
same,remaining activity at 10 µM,cSRC(h); [1],133%
same,remaining activity at 10 µM,Fer(h); [1],76%
same,remaining activity at 10 µM,BIKe(h); [1],95%
same,remaining activity at 10 µM,PKD3(h); [1],100%
same,remaining activity at 10 µM,WNK1(h); [1],78%
same,remaining activity at 10 µM,PKCβII(h); [1],107%
same,remaining activity at 10 µM,mTOR(h); [1],79%
same,remaining activity at 10 µM,MKK6(h); [1],78%
same,remaining activity at 10 µM,VRK2(h); [1],91%
same,remaining activity at 10 µM,Src(1-530)(h); [1],107%
same,remaining activity at 10 µM,AMPKα1(h); [1],110%
"Fc1ccc(CCNc2ncnc3ccc(F)cc23)cc1 [5as, 6-Fluoro-N-[2-(4-Fluorophenyl)Ethyl]-4-Quinazolinamine]",remaining activity at 10 µM,CDK1/cyclinB(h); [2],90%
same,remaining activity at 10 µM,cSRC(h); [2],81%
same,remaining activity at 10 µM,Fer(h); [2],98%
same,remaining activity at 10 µM,BIKe(h); [2],98%
same,remaining activity at 10 µM,PKD3(h); [2],114%
same,remaining activity at 10 µM,WNK1(h); [2],81%
same,remaining activity at 10 µM,PKCβII(h); [2],100%
same,remaining activity at 10 µM,mTOR(h); [2],76%
same,remaining activity at 10 µM,MKK6(h); [2],84%
same,remaining activity at 10 µM,VRK2(h); [2],99%
same,remaining activity at 10 µM,Src(1-530)(h); [2],101%
same,remaining activity at 10 µM,AMPKα1(h); [2],93%
"Fc1ccc2ncnc(NCCc3ccc(Cl)cc3)c2c1 [5at, N-[2-(4-Chlorophenyl)Ethyl]-6-Fluoro-4-Quinazolinamine]",remaining activity at 10 µM,CDK1/cyclinB(h); [3],91%
same,remaining activity at 10 µM,cSRC(h); [3],120%
same,remaining activity at 10 µM,Fer(h); [3],94%
same,remaining activity at 10 µM,BIKe(h); [3],88%
same,remaining activity at 10 µM,PKD3(h); [3],102%
same,remaining activity at 10 µM,WNK1(h); [3],92%
same,remaining activity at 10 µM,PKCβII(h); [3],104%
same,remaining activity at 10 µM,mTOR(h); [3],80%
same,remaining activity at 10 µM,MKK6(h); [3],95%
same,remaining activity at 10 µM,VRK2(h); [3],94%
same,remaining activity at 10 µM,Src(1-530)(h); [3],81%
same,remaining activity at 10 µM,AMPKα1(h); [3],85%
"COc1ccc2ncnc(Nc3cccc(F)c3)c2c1 [5ay, N-(3-Fluorophenyl)-6-Methoxy-4-Quinazolinamine]",remaining activity at 10 µM,CDK1/cyclinB(h); [4],72%
same,remaining activity at 10 µM,cSRC(h); [4],106%
same,remaining activity at 10 µM,Fer(h); [4],80%
same,remaining activity at 10 µM,BIKe(h); [4],67%
same,remaining activity at 10 µM,PKD3(h); [4],91%
same,remaining activity at 10 µM,WNK1(h); [4],75%
same,remaining activity at 10 µM,PKCβII(h); [4],110%
same,remaining activity at 10 µM,mTOR(h); [4],77%
same,remaining activity at 10 µM,MKK6(h); [4],74%
same,remaining activity at 10 µM,VRK2(h); [4],88%
same,remaining activity at 10 µM,Src(1-530)(h); [4],90%
same,remaining activity at 10 µM,AMPKα1(h); [4],100%
